Measurements taken from patent publication US12011444B2, “N-substituted indole derivatives as PGE2 receptor modulators” (Idorsia Pharmaceuticals Ltd, priority 2015, dated 2024).

Legend:
PTGER2 (EP2) = PTGER2 (EP2) (Homo sapiens (Human), UniProt P43116); experiment: hEP2 b-arrestin assay (PathHunter HEK 293 PTGER2 b-arrestin cells); assay type: cell-based; details: antagonistic activity on hEP2; mean where measured multiple times
In short: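 Readout is β-galactosidase complementation luminescence, expressed as percent of DMSO control (duplicates). PathHunter HEK293 EP2/β-arrestin 2 cells, grown 24 h, received compound for 15 min at 37 °C before a 120 min challenge with PGE2 at 5 μM final, followed by 1 h detection at room temperature.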

PTRGER4 (EP4) = PTRGER4 (EP4) (Homo sapiens (Human), UniProt P35408); experiment: hEP4 b-arrestin assay (PathHunter HEK 293 PTGER4 b-arrestin cells); assay type: cell-based; details: antagonistic activity on hEP4; mean where measured multiple times
Sequence of PTRGER4 (EP4) (P35408 whole entry, looked up, the tested form may be a part): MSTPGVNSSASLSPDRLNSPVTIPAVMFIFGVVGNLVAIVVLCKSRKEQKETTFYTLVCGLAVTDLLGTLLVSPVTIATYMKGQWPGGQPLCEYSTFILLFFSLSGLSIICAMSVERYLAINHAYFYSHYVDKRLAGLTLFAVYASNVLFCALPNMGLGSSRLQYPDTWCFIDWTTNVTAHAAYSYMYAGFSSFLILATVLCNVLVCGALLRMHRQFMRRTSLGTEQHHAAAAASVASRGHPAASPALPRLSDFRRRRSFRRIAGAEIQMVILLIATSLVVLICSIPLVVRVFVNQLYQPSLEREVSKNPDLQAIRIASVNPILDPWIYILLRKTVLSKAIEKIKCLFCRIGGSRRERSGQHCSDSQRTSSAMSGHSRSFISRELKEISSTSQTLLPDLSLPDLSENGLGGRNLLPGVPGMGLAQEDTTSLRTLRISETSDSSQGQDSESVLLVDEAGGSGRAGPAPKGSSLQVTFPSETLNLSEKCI
In short: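 Antagonist mode: compound is given 15 min at 37 °C, then 20 nM (final) PGE2 for 120 min, in HEK293 cells stably expressing EP4 fused to ProLink and β-arrestin 2 fused to EA. Recruitment read as β-gal luminescence after 1 h reagent at room temperature, as percent of DMSO control.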

Sequence of PTGER2 (EP2) (P43116 whole entry): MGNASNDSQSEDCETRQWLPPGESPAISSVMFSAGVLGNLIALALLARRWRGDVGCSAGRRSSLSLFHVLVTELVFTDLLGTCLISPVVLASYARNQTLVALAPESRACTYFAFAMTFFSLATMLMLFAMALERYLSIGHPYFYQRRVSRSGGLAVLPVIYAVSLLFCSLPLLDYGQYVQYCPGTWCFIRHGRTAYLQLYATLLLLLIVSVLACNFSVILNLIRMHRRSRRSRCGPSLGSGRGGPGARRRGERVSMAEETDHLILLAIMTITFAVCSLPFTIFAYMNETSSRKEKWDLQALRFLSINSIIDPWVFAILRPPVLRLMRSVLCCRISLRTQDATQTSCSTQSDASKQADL

Row | IC50 (PTGER2 (EP2)) [nM] | IC50 (PTRGER4 (EP4)) [nM] | Compound
1 | 245 | 906 | Cc1ccc(F)c2c1cc(C)n2CCNc1cc(-c2ccc(N3CCCS3(=O)=O)cc2)ncn1 [compound 316]
2 | 320 | 873 | COc1cc(F)cc2c1cc(C)n2CCNc1cc(-c2ccc(N3CCCC3=O)cc2)ncn1 [compound 317]
3 | 338 | 894 | COc1ccc(F)c2c1cc(C)n2CCNc1cc(-c2ccc(N3CCCC3=O)cc2)ncn1 [compound 318]
4 | 68 | 345 | CCN1Cc2cc(-c3cc(NCCn4c(C)cc5c(OC)ccc(F)c54)ncn3)ccc2C1=O [compound 320]
5 | 72 | 439 | COc1ccc(F)c2c1cc(C)n2CCNc1cc(-c2ccc(-c3csc(C)n3)cc2)ncn1 [compound 321]
6 | 18 | 708 | COc1ccc(F)c2c1cc(C)n2CCNc1cc(-c2ccc(C(=O)O)c3[nH]ccc23)ncn1 [compound 323, 4-{6-[2-(7-Fluoro-4-methoxy-2-methyl-indol-1-yl)-ethylamino]-pyrimidin-4-yl}-1H-indole-7-carboxylic acid]
7 | 4 | 23 | CNc1nnc(-c2ccc(-c3cc(NCCn4c(C)cc5c(C)ccc(F)c54)ncn3)cc2)s1 [compound 324, [2-(7-Fluoro-2,4-dimethyl-indol-1-yl)-ethyl]-{6-[4-(5-methylamino-[1,3,4]thiadiazol-2-yl)-phenyl]-pyrimidin-4-yl}-amine]
8 | 159 | 968 | COc1ccc(F)c2c1cc(C)n2CCNc1cc(-c2ccc3c(c2)CCO3)ncn1 [compound 325]
9 | 482 | 629 | CCc1cccc2c1cc(C)n2CCNc1cc(-c2ccc(C(=O)O)c(CC(C)C)c2)ncn1 [compound 327]
10 | 62 | 570 | Cc1ccc(C)c2c1cc(C)n2CCNc1cc(-c2ccc(C(=O)O)c(CC(C)C)c2)ncn1 [compound 328, 2-Isobutyl-4-{6-[2-(2,4,7-trimethyl-indol-1-yl)-ethylamino]-pyrimidin-4-yl}-benzoic acid]
11 | 27 | 653 | Cc1cccc2c1cc(C)n2CCNc1cc(-c2ccc(C(=O)O)c(CCC(C)C)c2)ncn1 [compound 329, 4-{6-[2-(2,4-Dimethyl-indol-1-yl)-ethylamino]-pyrimidin-4-yl}-2-(3-methyl-butyl)-benzoic acid]
12 | 102 | 667 | CSc1cc(-c2cc(NCCn3c(C)cc4c(C)c(F)cc(Cl)c43)ncn2)cc(F)c1C(=O)O [compound 330]
13 | 98 | 829 | CSc1cc(-c2cc(NCCn3c(C)cc4c(C)c(F)cc(Cl)c43)ncn2)cc(Cl)c1C(=O)O [compound 331]
14 | 5 | 588 | Cc1cc2c(F)ccc(F)c2n1CCNc1cc(-c2ccc(C(=O)O)c(CC(C)C)c2)ncn1 [compound 332, 4-{6-[2-(4,7-Difluoro-2-methyl-indol-1-yl)-ethylamino]-pyrimidin-4-yl}-2-isobutyl-benzoic acid]
15 | 15 | 483 | Cc1cc2cc(F)cc(F)c2n1CCNc1cc(-c2ccc(C(=O)O)c(CC(C)C)c2)ncn1 [compound 333, 4-{6-[2-(5,7-Difluoro-2-methyl-indol-1-yl)-ethylamino]-pyrimidin-4-yl}-2-isobutyl-benzoic acid]
16 | 28 | 603 | CCCSc1cc(-c2cc(NCCn3c(C)cc4c(C)ccc(Cl)c43)ncn2)ccc1C(=O)O [compound 334, 4-{6-[2-(7-Chloro-2,4-dimethyl-indol-1-yl)-ethylamino]-pyrimidin-4-yl}-2-propylsulfanyl-benzoic acid]
17 | 56 | 468 | CCCc1cc(-c2cc(NCCn3c(C)cc4cc(C)cc(Cl)c43)ncn2)cc(Cl)c1C(=O)O [compound 335]
18 | 46 | 199 | Cc1ccc(F)c2c1cc(C)n2CCNc1cc(-c2ccc(C(=O)O)c(CC(C)C)c2)ncn1 [compound 336, 4-{6-[2-(7-Fluoro-2,4-dimethyl-indol-1-yl)-ethylamino]-pyrimidin-4-yl}-2-isobutyl-benzoic acid]
19 | 858 | 357 | CCCc1cc(-c2cc(NCCn3c(C)cc4c(CC)ccc(F)c43)ncn2)ccc1C(=O)O [compound 338]
20 | 5 | 989 | CSc1cc(-c2cc(NCCn3c(C)cc4c(F)c(F)cc(Cl)c43)ncn2)cc(Cl)c1C(=O)O [compound 339, 2-Chloro-4-{6-[2-(7-chloro-4,5-difluoro-2-methyl-indol-1-yl)-ethylamino]-pyrimidin-4-yl}-6-methylsulfanyl-benzoic acid]
21 | 5 | 645 | CCCc1cc(-c2cc(NCCn3c(C)cc4c(F)ccc(Cl)c43)ncn2)cc(F)c1C(=O)O [compound 340, 4-{6-[2-(7-Chloro-4-fluoro-2-methyl-indol-1-yl)-ethylamino]-pyrimidin-4-yl}-2-fluoro-6-propyl-benzoic acid]

Row | IC50 (PTGER2 (EP2)) [nM] | IC50 (PTRGER4 (EP4)) [nM] | Compound
22 | 42 | 396 | CCSc1cc(-c2cc(NCCn3c(C)cc4c(C)c(F)cc(Cl)c43)ncn2)ccc1C(=O)O [compound 341, 4-{6-[2-(7-Chloro-5-fluoro-2,4-dimethyl-indol-1-yl)-ethylamino]-pyrimidin-4-yl}-2-ethylsulfanyl-benzoic acid]
23 | 5 | 621 | CCCc1cc(-c2cc(NCCn3c(C)cc4c(F)ccc(Cl)c43)ncn2)cc(Cl)c1C(=O)O [compound 342, 2-Chloro-4-{6-[2-(7-chloro-4-fluoro-2-methyl-indol-1-yl)-ethylamino]-pyrimidin-4-yl}-6-propyl-benzoic acid]
24 | 34 | 319 | CCOc1cc(-c2cc(NCCn3c(C)cc4c(C)c(F)cc(Cl)c43)ncn2)ccc1C(=O)O [compound 344, 4-{6-[2-(7-Chloro-5-fluoro-2,4-dimethyl-indol-1-yl)-ethylamino]-pyrimidin-4-yl}-2-ethoxy-benzoic acid]
25 | 89 | 164 | CCc1cc(-c2cc(NCCn3c(C)cc4c(OC)ccc(Cl)c43)ncn2)cc(Cl)c1C(=O)O [compound 345]
26 | 56 | 50 | CCc1cc(-c2cc(NCCn3c(C)cc4c(OC)ccc(F)c43)ncn2)cc(Cl)c1C(=O)O [compound 346]
27 | 11 | 239 | CCOc1cc(-c2cc(NCCn3c(C)cc4c(C)ccc(F)c43)ncn2)cc(C)c1C(=O)O [compound 347, 2-Ethoxy-4-{6-[2-(7-fluoro-2,4-dimethyl-indol-1-yl)-ethylamino]-pyrimidin-4-yl}-6-methyl-benzoic acid]
28 | 5 | 76 | CCCc1cc(-c2cc(NCCn3c(C)cc4c(OC)ccc(F)c43)ncn2)ccc1C(=O)O [compound 348, 4-{6-[2-(7-Fluoro-4-methoxy-2-methyl-indol-1-yl)-ethylamino]-pyrimidin-4-yl}-2-propyl-benzoic acid]
29 | 26 | 301 | Cc1cc(Cl)cc2c1cc(C)n2CCNc1cc(-c2ccc(C(=O)O)c(OC(F)F)c2)ncn1 [compound 349, 4-{6-[2-(6-Chloro-2,4-dimethyl-indol-1-yl)-ethylamino]-pyrimidin-4-yl}-2-difluoromethoxy-benzoic acid]
30 | 6 | 993 | CCOc1cc(-c2cc(NCCn3c(C)cc4c(F)c(F)cc(Cl)c43)ncn2)ccc1C(=O)O [compound 350, 4-{6-[2-(7-Chloro-4,5-difluoro-2-methyl-indol-1-yl)-ethylamino]-pyrimidin-4-yl}-2-ethoxy-benzoic acid]
31 | 52 | 688 | CCOc1cc(-c2cc(NCCn3c(C)cc4c(Cl)c(F)cc(Cl)c43)ncn2)ccc1C(=O)O [compound 351]
32 | 49 | 481 | COc1cccc2c1cc(C)n2CCNc1cc(-c2ccc3[nH]c(C)nc3c2)ncn1 [compound 352]
33 | 13 | 213 | CCNc1cc(-c2cc(NCCn3c(C)cc4c(C)ccc(F)c43)ncn2)cc(Cl)c1C(=O)O [compound 353, 2-Chloro-6-ethylamino-4-{6-[2-(7-fluoro-2,4-dimethyl-indol-1-yl)-ethylamino]-pyrimidin-4-yl}-benzoic acid]
34 | 32 | 772 | Cc1cc(F)cc2c1cc(C)n2CCNc1cc(-c2ccc(C(=O)O)c(C3CC3)c2)ncn1 [compound 354]
35 | 48 | 134 | Cc1ccc(F)c2c1cc(C)n2CCNc1cc(-c2ccc3ncccc3c2)ncn1 [compound 355]
36 | 15 | 165 | CCCNc1cc(-c2cc(NCCn3c(C)cc4c(C)ccc(F)c43)ncn2)ccc1C(=O)O [compound 356, 4-{6-[2-(7-Fluoro-2,4-dimethyl-indol-1-yl)-ethylamino]-pyrimidin-4-yl}-2-propylamino-benzoic acid]
37 | 54 | 272 | Cc1ccc(F)c2c1cc(C)n2CCNc1cc(-c2ccc3ccncc3c2)ncn1 [compound 357]
38 | 369 | 731 | CCOc1cc(-c2cc(NCCn3c(C)cc4c(OC)ccc(F)c43)ncn2)ccc1CNC [compound 358]
39 | 34 | 500 | COc1ccc(F)c2c1cc(C)n2CCNc1cc(-c2cc(F)c(S(N)(=O)=O)c(F)c2)ncn1 [compound 359, 2,6-Difluoro-4-{6-[2-(7-fluoro-4-methoxy-2-methyl-indol-1-yl)-ethylamino]-pyrimidin-4-yl}-benzenesulfonamide]
40 | 75 | 372 | CNS(=O)(=O)c1ccc(-c2cc(NCCn3c(C)cc4c(OC)ccc(F)c43)ncn2)cc1C [compound 360]
41 | 67 | 678 | COc1ccc(F)c2c1cc(C)n2CCNc1cc(-c2ccc(C(=O)NCCO)cc2)ncn1 [compound 361]
